Experimental data published in patent US10058540B2, “2-amino-5,5-difluoro-6-(fluoromethyl)-6-phenyl-3,4,5,6-tetrahydropyridines as BACE1 inhibitors” (H. Lundbeck A/S, priority 2014, dated 2018).

Key:
BACE1 [1] = biological target: T1, BACE1 (Homo sapiens (Human), UniProt P56817); assay: BACE1 binding assay (SPA-based, radioligand); conditions: pH 4.5, Ki=IC50/(1+L/Kd)
Description: The binding assay was performed as SPA-based assay using a biotinylated form of human BACE1 recombinantly expressed and subsequently purified from Freestyle HEK293 cells. The binding assay was run in a 50 mM sodium acetate buffer, pH 4.5 containing 50 mM NaCl and 0.03% Tween-20 in white clear bottom 384 plates (Corning #3653). 10 nM (final concentration) radioligand ([^3H]-N-((1S,2R)-1-benzyl-3-cyclopropylamino-2-hydroxy-propyl)-5-(methanesulfonyl-methyl-amino)-N-((R)-1-phenyl-ethyl)-isophthalamide) (TRQ11569 purchased from GE Healthcare) was mixed with test compound at a given concentration, 6 nM (final concentration) human BACE1 and 25 μg Streptavidin coated PVT core SPA beads (RPNQ0007, GE Healthcare Life Sciences) in a total volume of 40 μl. Several concentrations of each test compound were tested in the assay for IC50 determination. The plates were incubated for one hour at room temperature and counted in a Wallac Trilux counter. Total and non-specific binding were determined using buffer and 1 μM (final concentration) of the high affinity BACE1 reference inhibitor (S)-6-[3-chloro-5-(5-prop-1-ynyl-pyridin-3-yl)-thiophen-2-yl]-2-imino-3,6-dimethyl-tetrahydro-pyrimidin-4-one, respectively. For each test compound, a IC50 value (the concentration mediating 50% inhibition of the specific binding of the radioligand) was determined from concentration-response curve and used to calculate the Ki from the equation Ki=IC50/(1+L/Kd), where L and Kd are the final concentration of the radioligand used in the assay and the dissociation constant of the radioligand, respectively. The Kd of the radioligand was determined from saturation binding experiments.

BACE1 [2] = biological target: T1, BACE1; assay: BACE1 efficacy assay (FRET-based, commercial BACE1 kit); type: biochemical; conditions: 10 μM test compound
Description: The efficacy assay was performed as a FRET-based assay using a commercially available BACE1 kit (Life Technologies, P2985). 2 μl test compound at 10 μM (final concentration) and 15 μl BACE1 enzyme from the kit (final concentration 3 nM) were preincubated for 15 minutes at room temperature before addition of 15 μl of substrate from the kit (250 nM final concentration) and incubated for additional 90 minutes at room temperature. The assay plate was subsequently read in a Pherastar (Ex540/Em590). The enzyme activity observed in presence of test compound were normalized to the enzyme activity observed in presence of buffer and 10 μM (final concentration) of the high affinity BACE1 reference inhibitor (S)-6-[3-Chloro-5-(5-prop-1-ynyl-pyridin-3-yl)-thiophen-2-yl]-2-imino-3,6-dimethyl-tetra-hydropyrimidin-4-one, respectively. The efficacy of the test compounds was evaluated at 10 μM (final concentration) and defined as the percent inhibition of the enzyme activity using the equation % inhibition=100%−normalized enzyme activity in percent.

Aβ40 = assay: Assessment of Aβ peptide levels in rat brain and plasma following BACE1 inhibition (Aβ40 ELISA); type: in vivo; conditions: 3 hours post dose, vs vehicle
Description: Assessment of Aβ Peptide Levels in Rat Brain and Plasma Following BACE1 Inhibition. Animals.
Young adult Male Sprague Dawley rats of approximately 250 g weight were purchased from Charles River and received 0-30 mg/kg of vehicle (10% HP betaCD+1M MeSO4, pH 2.5) or test compounds (dissolved in vehicle) only by oral gavage (p.o). The compounds are dosed at a volume of […]. Cohorts of 5-10 animals were established for each treatment condition.
At T=180 minutes after initial dosing the animals were stunned and decapitated with a guillotine. Trunk-blood was sampled in EDTA coated tubes after decapitation of the animal. The blood was centrifuged at 2200 G at 4° C. for 15 minutes and the plasma was collected and frozen at −80° C. The blood was aliquoted for Aβ ELISA and DMPK analysis. Immediately following sacrifice, the brain was extracted and split into 2 halves. The right hemibrains were snap frozen on dry ice and stored at −80° C. The left half was dissected; with the front forebrain taken for Aβ ELISA and the remainder used for DMPK analysis. These samples were also snap frozen on dry ice and stored at −80° C. until use for analysis.
The cortex samples were thawed slightly on wet ice before they were homogenized with a small volume dispersing instrument (T10 basic ULTRA-TURRAX®) which was set at speed 5 for approximately 5-7 sec. The tissue was processed in a 10 times volume of the weight, for example 100 mg of tissue was homogenized in 1000 μL of Homogenization buffer. Homogenization buffer: 50 ml Milli Q water+[…]+0.2% Diethylamin (DEA)+1 tablet of Complete Protease inhibitor cocktail+1 nM 4-(2-aminoethyl)benzenesulfonyl fluoride hydrochloride irreversible serine protease inhibitor (AEBSF).
After homogenization 450 μL aliquots of the samples are collected into a 1.5 ml Eppendorf tube and placed on wet ice, 0.5% NP-40 (50 ul) was added to all samples and then they were incubated on ice for 30 min. After which all samples were sonicated using an Ultrasonic homogenizer with 20 kHz homogeneous sound (SONOPLUS HD2070, Bandelin Electronic) 10 pulse set at 12-13% power to extract all the Aβ species. The samples were then centrifuged (Ole Dich 157 MPRF Micro centrifuge) at 20000 G for 20 minutes at 4° C. After centrifugation 285 μL of the supernatant was pipetted into 600 μL microtubes tubes and neutralized with 15 μL of 1M Tris-HCL buffer.
WAKO 294-62501 Human/Rat Abeta amyloid (40) kit was used for all ELISA analyses. 30 μL plasma samples or 30 μL of the cortex supernatants generated as described above were placed in 600 μL microtubes tubes on wet ice. To this 30 μL of 8M Urea (AppliChem A1049, 9025) are added to generate a 2-fold dilution. Both plasma and cortex supernatants are incubated on ice for 30 min. Standard rows were prepared from the standard peptide stock provided in the kit and standard diluent containing 1.6M Urea (200 μL 8M Urea+800 μL of standard diluent) and 0.8M Urea (400 μL 8M Urea+3600 μL Standard diluent). A serial 2-fold dilution of Aβ40 from 100 pmol/ml to 0 pmol/L was prepared for the assay.
After incubation with urea, all samples were further diluted by addition of 5 times standard diluent from the Kit. This was done by adding 240 μL Standard Diluent to 60 μL sample/urea mixture, which was then mixed well. 100 μL of each diluted sample was pipetted into designated wells of the ELISA plate in duplicates. The plate was then covered and incubated overnight at 4° C. The following day, the ELISA kit was brought to room temperature before use. The incubated plate was washed 5 times with the 20× washing solution diluted in Milli Q water. 100 μL HRP-conjugate was applied to each well, and the plate was covered and incubates at 4° C. for 1 hr. The wash was repeated again for 5 times. 100 μL 3,3′,5,5′-Tetramethylbenzidine (TMB) solution was applied to each well and the plate was covered and incubated in the dark at room temperature for 30 minutes. […]

P-gp (MDR1) = assay: MDCK-MDR1 assay (permeability / Pgp efflux); type: in vitro ADME; conditions: dog, Papp BA/Papp AB, Pgp substrate when ≥2
Description: The permeability of the test compounds was assessed in MDCK-MDR1 cells that were cultured to confluency (4-6 days) in a 96 transwell plate. Test compounds were diluted with the transport buffer (HBSS+1% BSA) to a concentration of 0.5 μM and applied to the apical or basolateral side of the cell monolayer. Permeation of the test compounds from A to B direction or B to A direction was determined in triplicate over a 60-minute incubation time at 37° C. and 5% CO2 with a relative humidity of 95%. Test compounds were quantified by LC-MS/MS analysis based on the peaks area ratios of analyte/IS in both the receiver and donor wells of the transwell plate.
The apparent permeability coefficient Papp (cm/s) was calculated using the equation: Papp=(dCr/dt)×Vr/(A×C0) Where dCr/dt is the cumulative concentration of compound in the receiver chamber as a function of time (μM/s); Vr is the solution volume in the receiver chamber (0.05 mL on the apical side; 0.25 mL on the basolateral side); A is the surface area for the transport, i.e. 0.0804 cm^2 for the area of the monolayer; C0 is the initial concentration in the donor chamber (μM).
Compounds are classified Pgp substrates when efflux ratio (Papp BA/Papp AB) is ≥2.

T1 sequence (P56817 46-501): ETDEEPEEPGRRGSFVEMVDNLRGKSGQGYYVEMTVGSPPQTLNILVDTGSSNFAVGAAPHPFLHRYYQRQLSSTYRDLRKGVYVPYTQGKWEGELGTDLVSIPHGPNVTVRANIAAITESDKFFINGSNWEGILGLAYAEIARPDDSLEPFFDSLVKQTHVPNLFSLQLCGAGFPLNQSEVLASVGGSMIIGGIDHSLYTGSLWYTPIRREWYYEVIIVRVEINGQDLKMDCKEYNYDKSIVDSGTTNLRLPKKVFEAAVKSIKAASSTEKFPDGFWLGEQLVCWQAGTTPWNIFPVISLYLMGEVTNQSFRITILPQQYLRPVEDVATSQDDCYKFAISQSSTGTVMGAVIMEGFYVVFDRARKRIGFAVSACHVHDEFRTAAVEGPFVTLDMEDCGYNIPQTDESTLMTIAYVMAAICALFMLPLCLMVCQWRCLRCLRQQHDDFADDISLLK

Ki (BACE1 [1]): 9 nM
inhibition at 10 µM (BACE1 [2]): 106%
efflux ratio at 60 min, 0.5 μM (P-gp (MDR1)): 1.09
Compound: COc1ccc(C(=O)Nc2cc(F)c(F)c([C@@]3(CF)N=C(N)CCC3(F)F)c2)nc1 [Compound 15, (S)-N-(3-(6-amino-3,3-difluoro-2-(fluoromethyl)-2,3,4,5-tetrahydropyridin-2-yl)-4,5-difluorophenyl)-5-methoxypicolinamide]
Aβ40 reduction (Aβ40; rat brain, 10 mg/kg p.o.): 33%
Aβ40 reduction (Aβ40; rat brain, 30 mg/kg p.o.): 43%
Aβ40 reduction (Aβ40; rat plasma, 10 mg/kg p.o.): 34%
Aβ40 reduction (Aβ40; rat plasma, 30 mg/kg p.o.): 34%
